The source of these data is US8450522B2, “Conformationally constrained carboxylic acid derivatives useful for treating metabolic disorders” (Amgen Inc., priority 2008, dated 2013).

Each structure is given as a SMILES string. pEC50: −log10 of the molar value.

This assay addresses GPR40 (Homo sapiens, UniProt O14842). Description: Cell-based aequorin assay (CHO cells stably transfected with GPR40 and aequorin). Further details: expressed in transfected cells. The conditions noted are these: activation of human GPR40, CHO cells, 0.01% HSA. The procedure: Briefly, the Aequorin assays were performed on doubly stable CHO cells expressing GPR40 and Aequorin DNA. […] The luminescence was recorded over a period of 20 seconds with a Microlumat luminometer (Berthold).
Cell-based aequorin assays were employed to characterize the modulatory activity of compounds on the GPR40 signaling pathway. In an exemplary assay, CHO cells were stably transfected with both GPR40 and Aequorin (Euroscreen). Cells were detached from the tissue culture dish with 2 mL of trypsin (0.25% (w/v)). Trypsinization was halted with 28 mL of Hanks Buffered Salt Solution containing 20 mM Hepes (H/HBSS) and 0.01% fatty acid-free human serum albumin (HSA). Coelantrazine is added to 1 ug/mL, and the cells were incubated for 2 hours at room temperature. Compounds were dissolved in DMSO for preparation of 10 mM stock solutions. Compounds were diluted in H/HBSS containing 0.01% HSA. Serial dilutions of the test compounds were prepared to determine dose response.
Aequorin luminescence measurements were made using an EG&G Berthold 96-well luminometer, and the response was measured over a 20 second interval after cells and compounds were mixed. The maximum relative light units was plotted to determine dose response. The EC50 (effective concentration to reach 50% maximal response) was determined from the dose response plot.

Sequence of GPR40 (O14842 whole entry): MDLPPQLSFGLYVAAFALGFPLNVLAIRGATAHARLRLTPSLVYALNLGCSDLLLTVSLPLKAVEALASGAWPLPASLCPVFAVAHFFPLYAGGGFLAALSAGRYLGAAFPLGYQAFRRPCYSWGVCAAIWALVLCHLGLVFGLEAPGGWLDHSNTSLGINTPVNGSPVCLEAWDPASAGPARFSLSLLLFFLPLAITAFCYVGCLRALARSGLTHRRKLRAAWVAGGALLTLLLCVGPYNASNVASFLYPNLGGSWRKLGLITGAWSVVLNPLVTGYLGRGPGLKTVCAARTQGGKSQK

`COc1ccc(F)c(-c2ccc(COc3ccc4c(c3)[C@H](CC(=O)O)C4)cc2C(C)(C)C)c1` (single isomer, unassigned) [Example 3, (R)-2-(5-(3-t-Butyl-4-(2-fluoro-5-methoxyphenyl)benzyloxy)-1,2-dihydrocyclobutabenzen-1-yl)acetic acid or (S)-2-(5-(3-t-butyl-4-(2-fluoro-5-methoxyphenyl)benzyloxy)-1,2-dihydrocyclobutabenzen-1-yl)acetic acid] had a pEC50 of 5.00 to 6.00.

For the molecule `COc1ccc(F)c(-c2ccc(COc3ccc4c(c3)[C@@H](CC(=O)O)C4)cc2C(C)(C)C)c1` (single isomer, unassigned) [Example 4, ((7R)-4-(((2-(1,1-Dimethylethyl)-2′-fluoro-5′-(methyloxy)-1,1′-biphenyl-4-yl)methyl)oxy)bicyclo[4.2.0]octa-1,3,5-trien-7-yl)acetic acid or ((7R)-4-(((2-(1,1-dimethylethyl)-2′-fluoro-5′-(methyloxy)-1,1′-biphenyl-4-yl)methyl)oxy)bicyclo[4.2.0]octa-1,3,5-trien-7-yl)acetic acid], the pEC50 was under 5.00. Next, `COc1ccc(F)c(-c2ccc(COc3ccc4c(c3)CC[C@@H]4CC(=O)O)cc2C(C)(C)C)c1` (single isomer, unassigned) [Example 5, (R)-Methyl 2-(5-(3-t-butyl-4-(2-fluoro-5-methoxyphenyl)benzyloxy)-2,3-dihydro-1H-inden-1-yl)acetic acid or (S)-methyl 2-(5-(3-t-butyl-4-(2-fluoro-5-methoxyphenyl)benzyloxy)-2,3-dihydro-1H-inden-1-yl)acetic acid]: 5.00 to 6.00.

As to `COc1ccc(F)c(-c2ccc(COc3ccc4c(c3)[C@@H](CC(=O)O)C(C)(C)C4)cc2C(C)(C)C)c1` (single isomer, unassigned) [Example 8, ((1S)-6-(((2-(1,1-Dimethylethyl)-2′-fluoro-5′-(methyloxy)-1,1′-biphenyl-4-yl)methyl)oxy)-2,2-dimethyl-2,3-dihydro-1H-inden-1-yl)acetic acid or ((1R)-6-(((2-(1,1-dimethylethyl)-2′-fluoro-5′-(methyloxy)-1,1′-biphenyl-4-yl)methyl)oxy)-2,2-dimethyl-2,3-dihydro-1H-inden-1-yl)acetic acid], the negative-log EC50 (pEC50) was 5.00 to 6.00. The result for `COc1ccc(F)c(-c2ccc(COc3ccc4c(c3)[C@@H](CC(=O)O)C(C)(C)C4)cc2C2=CCCC2(C)C)c1` (single isomer, unassigned) [Example 9, ((1S)-6-(((2-(5,5-Dimethyl-1-cyclopenten-1-yl)-2′-fluoro-5′-(methyloxy)-1,1′-biphenyl-4-yl)methyl)oxy)-2,2-dimethyl-2,3-dihydro-1H-inden-1-yl)acetic acid or ((1R)-6-(((2-(5,5-dimethyl-1-cyclopenten-1-yl)-2′-fluoro-5′-(methyloxy)-1,1′-biphenyl-4-yl)methyl)oxy)-2,2-dimethyl-2,3-dihydro-1H-inden-1-yl)acetic acid] reads 6.00 to 7.00; that for `COc1ccc(F)c(-c2ccc(COc3ccc4c(c3)[C@H](CC(=O)O)C(C)(C)C4)cc2C(C)(C)C)c1` (single isomer, unassigned) [Example 10, ((1R)-6-(((2-(1,1-Dimethylethyl)-2′-fluoro-5′-(methyloxy)-1,1′-biphenyl-4-yl)methyl)oxy)-2,2-dimethyl-2,3-dihydro-1H-inden-1-yl)acetic acid or ((1S)-6-(((2-(1,1-dimethylethyl)-2′-fluoro-5′-(methyloxy)-1,1′-biphenyl-4-yl)methyl)oxy)-2,2-dimethyl-2,3-dihydro-1H-inden-1-yl)acetic acid], 5.00 to 6.00.

Broadly, the pEC50 is the negative decadic logarithm of the EC50, by convention in mol/L. A higher pEC50 goes with a small EC50.
